These results are taken from patent EP0686628A2, “Prostaglandin F esters” (ONO PHARMACEUTICAL CO., LTD., priority 1994, dated 1995).

In series [1] the test system is intraocular pressure. The series can be described thus: Experiment 2: ocular hypotensive effect (Δ IOP) after instillation of a 0.02% solution, comparison with compared compounds. It is filed as in vivo, Male Japanese White rabbits. The settings on record: rabbit; for Ocular Hypotensive Effects on Intraocular Pressure (Δ IOP), Time after Administration 0 hr.: 0 hr. after administration (baseline); for Ocular Hypotensive Effects on Intraocular Pressure (Δ IOP), Time after Administration 1 hr.: 1 hr. after administration; for Ocular Hypotensive Effects on Intraocular Pressure (Δ IOP), Time after Administration 2 hr.: 2 hr. after administration; for Ocular Hypotensive Effects on Intraocular Pressure (Δ IOP), Time after Administration 4 hr.: 4 hr. after administration; for Ocular Hypotensive Effects on Intraocular Pressure (Δ IOP), Time after Administration 6 hr.: 6 hr. after administration; for initial elevation of the intraocular pressure: side effect. The method, then:
(§1) Male Japanese White rabbits weighing about 3.0 kg were lightly held and the intraocular pressure was measured by Applanation Pneumatonograph after corneal anesthesia with instillation of 0.4% oxybuprocaine hydrochloride solution.
(§2) A test compound was dissolved at 0.1% in vehicle which contains 2.5% glycerol and 2.0% polysorbate 80 in sterile purified water. The test solution at volume of […] was instilled into the left eye of each rabbit and the right eye remained untreated. As a control, the vehicle was instilled into the left eye in a control group. Δ IOP (mmHg), which is an index of ocular hypotensive effect, were calculated using below formula. Δ IOP = (IOPt - IOP0) - (IOPvt - IOPv0) [formula] IOPt : IOP at t hr. after instillation of a test solution IOPvt : IOP at t hr. after instillation of vehicle IOP0 : IOP just before instillation of a test solution IOPv0 : IOP just before instillation of vehicle
Further, the compounds of the present invention were compared with the compounds shown concretely in related arts hereinbefore described. The compounds have chemical structures quite similar to the compounds of the present invention were selected as compared compounds. 0.02% solutions of the compounds of the present invention were compared with the compared compounds, because the 0.02% solution is close to concentration used actually.
The compounds of the present invention and compared compounds were dissolved in vehicle at 0.02%, and Δ IOPs (mmHg) after instillation of these solution, which are the index of ocular hypotensive effects, were calculated in the same way as the experiment 1.
The graphs of the results shown in the Table 1 and Table 2 were Figure 1 and Figure 2.

The subject of series [2] is intraocular pressure. Put plainly: Experiment 1: ocular hypotensive effect (Δ IOP) after instillation of a 0.1% solution into the rabbit eye. Format: in vivo, Male Japanese White rabbits. The settings on record: 0.1% solution instilled into left eye, vehicle-corrected, mean of three or four samples. The method, then: as §1, §2
For example, the maximum reduction of IOP after instillation of the compounds shown as examples 1, 1(a), 1(b), 2, 3, 4 and 5 hereinafter were 6.0, 5.7, 5.4, 4.0, 4.7, 6.7 and 9.8 mmHg, respectively. And when the compound of the present invention was instilled, bulbar and palpebral conjunctival hyperemia could hardly be observed.

In the case of `CCCCC(C)(C)[C@H](O)/C=C/[C@@H]1[C@@H](C/C=C\CCCC(=O)OCC)[C@H](O)C[C@H]1O` [Example 5, 16,16-dimethyl-PGF2β ethyl ester], in the series with intraocular pressure [1], the “time after administration at which the ocular hypotensive effect appeared” value amounted to 1 h; the “time after administration for which the activity was maintained” value (“time … for which the activity was maintained” below) amounted to 6 h; the “Ocular Hypotensive Effects on Intraocular Pressure (Δ IOP), Time after Administration 0 hr.” value amounted to 0 mmHg; the “Ocular Hypotensive Effects on Intraocular Pressure (Δ IOP), Time after Administration 1 hr.” value is given as -2.0 mmHg. In the series on intraocular pressure [1], the “Ocular Hypotensive Effects on Intraocular Pressure (Δ IOP), Time after Administration 2 hr.” value was -3.5 mmHg; the “Ocular Hypotensive Effects on Intraocular Pressure (Δ IOP), Time after Administration 4 hr.” value was -7.3 mmHg; the “Ocular Hypotensive Effects on Intraocular Pressure (Δ IOP), Time after Administration 6 hr.” value is given as -7.3 mmHg; the “initial elevation of the intraocular pressure” value is “did not show initial elevation”. Moreover, the “maximum reduction of IOP after instillation” value (from here on “maximum reduction of IOP”) in the series on intraocular pressure [2] amounted to 9.8 mmHg.
Take `CCCCC(C)(C)[C@H](O)CC[C@@H]1[C@@H](C/C=C\CCCC(=O)OC(C)C)[C@@H](O)C[C@H]1O` [Example 2, 16,16-dimethyl-13,14-dihydro-PGF2α isopropyl ester]: the “maximum reduction of IOP” value with intraocular pressure [2] worked out at 4.0 mmHg.
Regarding `CCCCC[C@H](O)CC[C@@H]1[C@@H](C/C=C\CCCC(=O)Oc2ccccc2)[C@H](O)C[C@H]1O` [Example 1(a), 13,14-dihydro-PGF2β phenyl ester], the “maximum reduction of IOP” value in the series on intraocular pressure [2] is reported as 5.7 mmHg.
On to `CCCCC(C)(C)[C@H](O)/C=C/[C@@H]1[C@@H](C/C=C\CCCC(=O)O)[C@@H](O)C[C@H]1O` [Compared compound 2, 16,16-dimethyl-PGF2α, reference compound], for which, in the series on intraocular pressure [1], the “duration of the initial elevation of intraocular pressure” value came out at 4 h; the “time after administration at which the ocular hypotensive effect appeared” value is 4 h; the “Ocular Hypotensive Effects on Intraocular Pressure (Δ IOP), Time after Administration 0 hr.” value came out at 0 mmHg; the “Ocular Hypotensive Effects on Intraocular Pressure (Δ IOP), Time after Administration 1 hr.” value stood at 4.5 mmHg. In addition, in the series with intraocular pressure [1], the “Ocular Hypotensive Effects on Intraocular Pressure (Δ IOP), Time after Administration 2 hr.” value is listed as 4.5 mmHg; the “Ocular Hypotensive Effects on Intraocular Pressure (Δ IOP), Time after Administration 4 hr.” value is -2.0 mmHg; the “Ocular Hypotensive Effects on Intraocular Pressure (Δ IOP), Time after Administration 6 hr.” value was -0.8 mmHg; the “initial elevation of the intraocular pressure” value is listed as “showed initial elevation”.
For the molecule `CCCCC[C@H](O)CC[C@@H]1[C@@H](C/C=C\CCCC(=O)OC2CCCCC2)[C@@H](O)C[C@H]1O` [Compared compound 1, 13,14-dihydro-PGF2α cyclohexyl ester, reference compound], in the series on intraocular pressure [1], the “time after administration at which the ocular hypotensive effect appeared” value turned out to be 4 h; the “Ocular Hypotensive Effects on Intraocular Pressure (Δ IOP), Time after Administration 0 hr.” value is recorded as 0 mmHg; the “Ocular Hypotensive Effects on Intraocular Pressure (Δ IOP), Time after Administration 1 hr.” value was 11.3 mmHg; the “Ocular Hypotensive Effects on Intraocular Pressure (Δ IOP), Time after Administration 2 hr.” value was 2.3 mmHg. Also, in the series on intraocular pressure [1], the “Ocular Hypotensive Effects on Intraocular Pressure (Δ IOP), Time after Administration 4 hr.” value is -5.6 mmHg; the “Ocular Hypotensive Effects on Intraocular Pressure (Δ IOP), Time after Administration 6 hr.” value was -9.3 mmHg; the “initial elevation of the intraocular pressure” value was “showed extremely strong initial elevation”.
On to `CCCCC[C@H](O)CC[C@@H]1[C@@H](C/C=C\CCCC(=O)OCc2ccccc2)[C@H](O)C[C@H]1O` [Example 1(b), 13,14-dihydro-PGF2β benzyl ester], for which the “maximum reduction of IOP” value in the series with intraocular pressure [2] amounted to 5.4 mmHg.
Regarding `CCCCC(C)(C)[C@H](O)/C=C/[C@@H]1[C@@H](C/C=C\CCCC(=O)OC(C)C)[C@@H](O)C[C@H]1O` [Example 3, 16,16-dimethyl-PGF2α isopropyl ester], the “maximum reduction of IOP” value in the series with intraocular pressure [2] came to 4.7 mmHg.
Take `CCCCC[C@H](O)CC[C@@H]1[C@@H](C/C=C\CCCC(=O)OC2CCCCC2)[C@H](O)C[C@H]1O` [Example 1, 13,14-dihydro-PGF2β cyclohexyl ester]: in the series with intraocular pressure [1], the “time after administration at which the ocular hypotensive effect appeared” value is 1 h; the “time … for which the activity was maintained” value was determined as 6 h; the “Ocular Hypotensive Effects on Intraocular Pressure (Δ IOP), Time after Administration 0 hr.” value was 0 mmHg; the “Ocular Hypotensive Effects on Intraocular Pressure (Δ IOP), Time after Administration 1 hr.” value is -2.0 mmHg. In addition, in the series on intraocular pressure [1], the “Ocular Hypotensive Effects on Intraocular Pressure (Δ IOP), Time after Administration 2 hr.” value is -2.3 mmHg; the “Ocular Hypotensive Effects on Intraocular Pressure (Δ IOP), Time after Administration 4 hr.” value is listed as -6.6 mmHg; the “Ocular Hypotensive Effects on Intraocular Pressure (Δ IOP), Time after Administration 6 hr.” value is -1.8 mmHg; the “initial elevation of the intraocular pressure” value is on record as “did not show initial elevation”. Besides, the “activity (reduction of intraocular pressure) reached at 4 hrs. after administration” value in the series on intraocular pressure [1] (4 hrs. after administration, printed as magnitude) amounted to 6.6 mmHg. Also, in the series on intraocular pressure [2], the “maximum reduction of IOP” value was 6.0 mmHg.
As to `CCCCC(C)(C)[C@H](O)/C=C/[C@@H]1[C@@H](C/C=C\CCCC(=O)OC(C)C)[C@H](O)C[C@H]1O` [Example 4, 16,16-dimethyl-PGF2β isopropyl ester], in the series with intraocular pressure [1], the “time after administration at which the ocular hypotensive effect appeared” value turned out to be 1 h; the “time … for which the activity was maintained” value was found to be 6 h; the “Ocular Hypotensive Effects on Intraocular Pressure (Δ IOP), Time after Administration 0 hr.” value was found to be 0 mmHg; the “Ocular Hypotensive Effects on Intraocular Pressure (Δ IOP), Time after Administration 1 hr.” value is on record as -5.0 mmHg. For the same molecule, in the series with intraocular pressure [1], the “Ocular Hypotensive Effects on Intraocular Pressure (Δ IOP), Time after Administration 2 hr.” value is reported as -5.0 mmHg; the “Ocular Hypotensive Effects on Intraocular Pressure (Δ IOP), Time after Administration 4 hr.” value is -12.3 mmHg; the “Ocular Hypotensive Effects on Intraocular Pressure (Δ IOP), Time after Administration 6 hr.” value is -9.6 mmHg; the “initial elevation of the intraocular pressure” value is “did not show initial elevation”. Also, the “maximum reduction of IOP” value in the series on intraocular pressure [2] is 6.7 mmHg.
